Test results published in article PMC5453931, “Cathelicidin-trypsin inhibitor loop conjugate represents a promising antibiotic candidate with protease stability” (Scientific Reports, 2017).
≈ marks a conversion by molar mass, not a printed value. Where a SMILES comes first, the peptide text is derived from it. Bridges are numbered along the chain shown (N, C = ends).

Legend:
[1] = test system: E. coli 08040726; assay type: cell-based; conditions: 08040726, 18 h
Protocol: (§1) A two-fold broth microdilution method described in our previous paper was used to determine the antimicrobial activities of parental and hybrid peptides. More than 30 strains including Gram-negative bacteria, Gram-positive bacteria and fungi were used in the current assay, in which the standard strains were stored in our lab and the clinical strains were collected from local hospitals. Briefly, bacteria were incubated in Mueller-Hinton broth (MH broth) at 37 °C to exponential phase and diluted to 10^6 CFU/mL. A serial dilution of peptide sample were prepared in 96-well microtiter plates (50 μL) and mixed with equal volume of microbial inoculums (50 μL). The plate was slowly shaken in the microbial incubator, and measured at A595 after incubation at 37 °C for 18 h. The minimal concentrations at which no microbial growth occurred were recorded as MIC (minimal inhibitory concentration) values. The traditional antibiotic ampicillin was used as positive control. The results are shown in an average of the MICs obtained from three independent experiments.

[2] = test system: E. coli 08040726; test: MIC, two-fold broth microdilution (second listing of the strain number); assay type: cell-based; conditions: Gram-negative, MH broth, 37 °C, 18 h, mean of three independent experiments in duplicates
Protocol: as §1

[3] = test system: Aeromonas sobria; test: microbe, parasite or virus in culture; assay type: cell-based; conditions: Aquatic pathogenic bacteria; two-fold broth microdilution, 37 °C, 18 h; mean of three independent experiments in duplicates
Protocol: as §1

[4] = test system: Aeromonas veronii; test: microbe, parasite or virus in culture; assay type: cell-based; conditions: Aquatic pathogenic bacteria; two-fold broth microdilution, 37 °C, 18 h; mean of three independent experiments in duplicates
Protocol: as §1

[5] = test system: Bacillus subtilis 08042313; test: microbe, parasite or virus in culture; assay type: cell-based; conditions: 08042313, 18 h
Protocol: as §1

[6] = test system: Candida albicans 08030102; test: microbe, parasite or virus in culture; assay type: cell-based; conditions: 08030102, 18 h
Protocol: as §1

[7] = test system: Candida glabrata 08A802; test: microbe, parasite or virus in culture; assay type: cell-based; conditions: 08A802, 18 h
Protocol: as §1

[8] = test system: E. Coli 08032823; test: microbe, parasite or virus in culture; assay type: cell-based; conditions: 08032823, 18 h
Protocol: as §1

[9] = test system: Edwardsiella tarda; test: microbe, parasite or virus in culture; assay type: cell-based; conditions: 18 h
Protocol: as §1

[10] = test system: Enterococcus faecium 08052315; test: microbe, parasite or virus in culture; assay type: cell-based; conditions: 08052315, 18 h
Protocol: as §1

[11] = test system: Escherichia coli ATCC25922; test: microbe, parasite or virus in culture; assay type: cell-based; conditions: ATCC25922, 18 h
Protocol: as §1

[12] = test system: K. Pneumoniae 08031012; test: microbe, parasite or virus in culture; assay type: cell-based; conditions: Gram-negative; two-fold broth microdilution, MH broth, 37 °C, 18 h; mean of three independent experiments in duplicates
Protocol: as §1

[13] = test system: K. Pneumoniae 08040202; test: microbe, parasite or virus in culture; assay type: cell-based; conditions: Gram-negative; two-fold broth microdilution, MH broth, 37 °C, 18 h; mean of three independent experiments in duplicates
Protocol: as §1

[14] = test system: Nocardia asteroides 08052412; test: microbe, parasite or virus in culture; assay type: cell-based; conditions: 18 h
Protocol: as §1

[15] = test system: P. Aeruginosa 08021015; test: microbe, parasite or virus in culture; assay type: cell-based; conditions: 08021015, 18 h
Protocol: as §1

[16] = test system: Proteus mirabilis 1376; test: microbe, parasite or virus in culture; assay type: cell-based; conditions: 1376, 18 h
Protocol: as §1

[17] = test system: S. Aureus 08032615; test: microbe, parasite or virus in culture; assay type: cell-based; conditions: 08032615, 18 h
Protocol: as §1

[18] = test system: S. Aureus 08032706; test: microbe, parasite or virus in culture; assay type: cell-based; conditions: Gram-positive; two-fold broth microdilution, MH broth, 37 °C, 18 h; mean of three independent experiments in duplicates
Protocol: as §1

[19] = test system: S. Aureus 08032810; test: microbe, parasite or virus in culture; assay type: cell-based; conditions: Gram-positive; two-fold broth microdilution, MH broth, 37 °C, 18 h; mean of three independent experiments in duplicates
Protocol: as §1

[20] = test system: S. Maltophilia 090223; test: microbe, parasite or virus in culture; assay type: cell-based; conditions: 090223, 18 h
Protocol: as §1

[21] = test system: Vibrio brasiiensis; test: microbe, parasite or virus in culture; assay type: cell-based; conditions: 18 h
Protocol: as §1

[22] = test system: Vibrio cholerae; test: microbe, parasite or virus in culture; assay type: cell-based; conditions: 18 h
Protocol: as §1

[23] = test system: Vibrio harveyi; test: microbe, parasite or virus in culture; assay type: cell-based; conditions: 18 h
Protocol: as §1

[24] = test system: E. Coli 08032813; test: MIC, two-fold broth microdilution; assay type: cell-based; conditions: Gram-negative; two-fold broth microdilution, MH broth, 37 °C, 18 h; mean of three independent experiments in duplicates
Method in brief: (§2)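 MH broth, 2-fold serial peptide dilution; inoculum 10^6 CFU/mL before equal-volume mixing. 37 °C, 18 h, gentle shaking, A595 read. MIC = no-growth endpoint, mean of 3 independent runs.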

[25] = test system: Staphylococcus epidermidis; test: MIC, two-fold broth microdilution; assay type: cell-based; conditions: Gram-positive; two-fold broth microdilution, MH broth, 37 °C, 18 h; mean of three independent experiments in duplicates
Method in brief: as §2

[26] = test system: Vibrio Parahaemolyticus; test: MIC, two-fold broth microdilution; assay type: cell-based; conditions: Aquatic pathogenic bacteria; two-fold broth microdilution, 37 °C, 18 h; mean of three independent experiments in duplicates
Method in brief: as §2

[27] = test system: 08030209; test: microbe, parasite or virus in culture; assay type: cell-based, Arcyria cinerea; conditions: Fungi; two-fold broth microdilution, 37 °C, 18 h; mean of three independent experiments in duplicates
Protocol: as §1

[28] = biological target: trypsin; test: Trypsin inhibition assay (NBLAN hydrolysis, Dixon method); assay type: biochemical; conditions: 50 mM Tris–HCl pH 7.8, trypsin 0.1 mg/mL, 5 min pre-incubation at 37 °C, substrate NBLAN 48, 96, 192 μg/mL, 405 nm
Protocol: The inhibition effect on the hydrolysis of synthetic chromogenic substrate by trypsin was assayed in 50 mM Tris–HCl, pH 7.8 buffer at room temperature. The trypsin of final concentration of 0.1 mg/mL and different amounts of the hybrid peptide (final concentrations ranging from 0 to 0.16 μg/mL) were pre-incubated for 5 min at 37 °C. N-α-Benzoyl-DL-arginine p-nitroanilide hydrochloride (NBLAN) was used as a substrate for trypsin. The reaction was initiated by the addition of NBLAN with a final concentration of 48, 96 and 192 μg/mL, respectively. The formation of yellow product, p-nitroaniline was monitored continuously at 405 nm[61]. The inhibition constant Ki of the hybrid peptides were determined according to the method of Dixon (1953)[62].

CC[C@H](C)[C@@H]1NC(=O)[C@H](CO)NC(=O)[C@H](CCCCN)NC(=O)[C@H]([C@@H](C)O)NC(=O)[C@H](Cc2c[nH]c3ccccc23)NC(=O)[C@@H](NC(=O)[C@H](Cc2ccccc2)NC(=O)[C@H](CCCCN)NC(=O)[C@H](CCCCN)NC(=O)[C@@H](NC(=O)[C@H](C)NC(=O)[C@H](CCCNC(=N)N)NC(=O)[C@H](CCCNC(=N)N)NC(=O)[C@@H](NC(=O)[C@H](CO)NC(=O)[C@H](CCCCN)NC(=O)[C@H](CC(C)C)NC(=O)[C@H](CC(C)C)NC(=O)[C@H](CCCNC(=N)N)NC(=O)[C@H](CCCCN)NC(=O)[C@H](Cc2ccccc2)NC(=O)[C@H](Cc2ccccc2)NC(=O)[C@@H](N)CCCCN)C(C)C)C(C)C)CSSC[C@@H](C(=O)O)NC(=O)[C@@H]2CCCN2C(=O)[C@H](CCCCN)NC(=O)[C@@H]2CCCN2C(=O)[C@@H]2CCCN2C1=O [H3TI] (H-KFFKRLLKSVRRAVKKFCWTKSIPPKPC-OH; disulfide 18-28)
MIC E. coli 08040726 [1]: 9.38 µg/mL (≈ 2.77 µM) | MIC E. Coli 08040726 (second line with this strain number) [2]: — (no detectable activity in MIC assay in dose of 200 µg/mL or in trypsin inhibition assay at concentration of 160 μg/mL) | MIC Aeromonas sobria [3]: — (no detectable activity in MIC assay in dose of 200 µg/mL or in trypsin inhibition assay at concentration of 160 μg/mL) | MIC Aeromonas veronii [4]: — (no detectable activity in MIC assay in dose of 200 µg/mL or in trypsin inhibition assay at concentration of 160 μg/mL) | MIC Bacillus subtilis 08042313 [5]: 9.38 µg/mL (≈ 2.77 µM) | MIC Candida albicans 08030102 [6]: 4.69 µg/mL (≈ 1.38 µM) | MIC Candida glabrata 08A802 [7]: 4.69 µg/mL (≈ 1.38 µM) | MIC E. Coli 08032823 [8]: 37.5 µg/mL (≈ 11.1 µM) | MIC Edwardsiella tarda [9]: 37.5 µg/mL (≈ 11.1 µM) | MIC Enterococcus faecium 08052315 [10]: 9.38 µg/mL (≈ 2.77 µM) | MIC Escherichia coli ATCC25922 [11]: 37.5 µg/mL (≈ 11.1 µM) | MIC K. Pneumoniae 08031012 [12]: — (no detectable activity in MIC assay in dose of 200 µg/mL or in trypsin inhibition assay at concentration of 160 μg/mL) | MIC K. Pneumoniae 08040202 [13]: — (no detectable activity in MIC assay in dose of 200 µg/mL or in trypsin inhibition assay at concentration of 160 μg/mL) | MIC Nocardia asteroides 08052412 [14]: 18.75 µg/mL (≈ 5.53 µM) | MIC P. Aeruginosa 08021015 [15]: 37.5 µg/mL (≈ 11.1 µM) | MIC Proteus mirabilis 1376 [16]: 37.5 µg/mL (≈ 11.1 µM) | MIC S. Aureus 08032615 [17]: 37.5 µg/mL (≈ 11.1 µM) | MIC S. Aureus 08032706 [18]: — (no detectable activity in MIC assay in dose of 200 µg/mL or in trypsin inhibition assay at concentration of 160 μg/mL) | MIC S. Aureus 08032810 [19]: — (no detectable activity in MIC assay in dose of 200 µg/mL or in trypsin inhibition assay at concentration of 160 μg/mL) | MIC S. Maltophilia 090223 [20]: 18.75 µg/mL (≈ 5.53 µM) | MIC Vibrio brasiiensis [21]: 18.75 µg/mL (≈ 5.53 µM) | MIC Vibrio cholerae [22]: 75 µg/mL (≈ 22.1 µM) | MIC Vibrio harveyi [23]: 37.5 µg/mL (≈ 11.1 µM) | MIC E. Coli 08032813 [24]: — (no detectable activity in MIC assay in dose of 200 µg/mL or in trypsin inhibition assay at concentration of 160 μg/mL) | MIC Staphylococcus epidermidis [25]: — (no detectable activity in MIC assay in dose of 200 µg/mL or in trypsin inhibition assay at concentration of 160 μg/mL) | MIC Vibrio Parahaemolyticus [26]: 4.69 µg/mL (≈ 1.38 µM) | MIC Arcyria cinerea 08030209 [27]: — (no detectable activity in MIC assay in dose of 200 µg/mL or in trypsin inhibition assay at concentration of 160 μg/mL) | Ki [28]: 5.5 µM
